Experimental data as given in patent US20230277569A1, “Compositions and Methods for Treating, Ameliorating and/or Preventing Cancer and Kits for the Same” (priority 2022, published 2023).

Legend:
CYP2C9 = CYP2C9 (Homo sapiens, UniProt P11712); assay: CYP inhibition in liver microsomes, CYP2C9; type: in vitro ADME; settings: human liver microsomes 0.1 mg/mL
Description: After addition of prototypical CYP substrates in 250 μL, samples were incubated for 10 min (CYP1A2, CYP2B6, CYP2C9, and CYP3A4) or 20 min (CYP2C8) at 37° C. in 5% CO2. […] Samples were analyzed for metabolite formation by LC-MS/MS. The results were expressed using the peak area ratio of analyte to internal standard, based on the calibration curves.
where Range=fitted uninhibited value, s=slope factor, x=inhibitor concentration, y=% control activity.

Nav1.5 = Nav1.5 (Homo sapiens, UniProt Q14524); assay: Ion channel screening, Nav1.5; type: cell-based; settings: n=3, pulse 26, read-out: inhibition of Nav1.5 currents
Description: (§1) The parameters measured were the maximum inward current evoked on stepping to −20 mV from the 1st and 26th pulse. Human Kv4.3/KChIP2 currents were evoked from a holding potential of −80 mV by a series of four 500 msec pulses to 0 mV using a 1000 msec interval between pulses. The parameter measured was the amplitude of the outward current 50 msec after the onset of the 4th voltage step to 0 mV. Human Cav1.2 currents were evoked by 2 pulses to −10 mV from a holding potential of −100 mV. The parameters measured were the maximum inward currents evoked on stepping to −10 mV from the holding potential of −100 mV for the 1st and 2nd pulse. Human Kv1.5 currents were evoked by a single pulse from a holding potential of −80 mV to a potential of 0 mV for 4 sec before returning to −80 mV. The parameters measured were the maximum amplitude of outward currents evoked at the beginning of the voltage pulse and at the end of the voltage step from −80 mV to 0 mV. Human KCNQ1/minK currents were evoked by a single pulse delivered from a holding potential of −80 mV to +60 mV for 4 sec before returning to −80 mV. The parameter measured was the maximum outward current evoked on stepping to +60 mV from the holding potential of −80 mV. hERG currents were evoked by a three-pulse protocol where voltage was first stepped to +40 mV for two sec from a holding potential of −80 mV to inactivate hERG channels. […]

Cav1.2 = Cav1.2 (Homo sapiens, UniProt Q13936); assay: Ion channel screening, Cav1.2; type: cell-based; settings: n=34, pulse 2, read-out: inhibition of Cav1.2 currents
Description: as §1

hERG = target: T1, hERG (Homo sapiens, UniProt Q12809); assay: Patch clamp recording of hERG currents in transfected HEK293 cells; type: cell-based
T1 construct: expressed in transfected cells; host or cells: HEK293 (ATCC), polyclonal, stably transfected, G418 selection
Description: Caco-2 and HEK293 cells were obtained from the American Type Culture Collection (ATCC, Manasass, Va.) and grown in culture according to the supplier's specifications. In some experiments, HEK293 cells were stably transfected with hERG cDNA and polyclonal cultures were maintained in the presence of 250 μg/ml geneticin (G418).
For electrophysiology recording, a micropipette was pulled from borosilicate glass with the pipette tip resistance between 3˜5 MΩ. For each experiment, polyclonal HEK293 cells stably transfected with hERG cDNA and maintained in 250 μg/ml Geneticin (G418) were plated on 35 mm dishes on the microscope stage and a commercial patch clamp amplifier was used for the whole cell recordings. The tail currents were evoked at 22° C. once every 30 sec by a 3 sec-50 mV repolarizing pulse following a 2 sec+50 mV depolarizing pulse with a hold voltage of −80 mV. A 50 msec depolarized pulse to −50 mV at the beginning of the voltage protocol served as a baseline for calculating the amplitude of the peak tail current. The hERG currents were allowed to stabilize over a 3 min period in the presence of vehicle alone prior to Gamitrinib application. The cells were kept in the test solution until the peak tail current was stable (<5% change) for ˜5 sweeps or for a maximum of 6 min, whichever came first. Peak tail amplitudes were plotted as a function of the sweep number. Five peak tail current measurements at the steady state before Gamitrinib application were averaged and used as the control current amplitude. Four or five peak tail current measurements at the steady state after Gamitrinib application were averaged and used as the remaining current amplitude after inhibition by the test article. The % inhibition of the test article was calculated from the following equation: […]

[1] = Phase I, cytochrome P450-mediated human liver microsome metabolism

T1 sequence (Q12809 whole entry): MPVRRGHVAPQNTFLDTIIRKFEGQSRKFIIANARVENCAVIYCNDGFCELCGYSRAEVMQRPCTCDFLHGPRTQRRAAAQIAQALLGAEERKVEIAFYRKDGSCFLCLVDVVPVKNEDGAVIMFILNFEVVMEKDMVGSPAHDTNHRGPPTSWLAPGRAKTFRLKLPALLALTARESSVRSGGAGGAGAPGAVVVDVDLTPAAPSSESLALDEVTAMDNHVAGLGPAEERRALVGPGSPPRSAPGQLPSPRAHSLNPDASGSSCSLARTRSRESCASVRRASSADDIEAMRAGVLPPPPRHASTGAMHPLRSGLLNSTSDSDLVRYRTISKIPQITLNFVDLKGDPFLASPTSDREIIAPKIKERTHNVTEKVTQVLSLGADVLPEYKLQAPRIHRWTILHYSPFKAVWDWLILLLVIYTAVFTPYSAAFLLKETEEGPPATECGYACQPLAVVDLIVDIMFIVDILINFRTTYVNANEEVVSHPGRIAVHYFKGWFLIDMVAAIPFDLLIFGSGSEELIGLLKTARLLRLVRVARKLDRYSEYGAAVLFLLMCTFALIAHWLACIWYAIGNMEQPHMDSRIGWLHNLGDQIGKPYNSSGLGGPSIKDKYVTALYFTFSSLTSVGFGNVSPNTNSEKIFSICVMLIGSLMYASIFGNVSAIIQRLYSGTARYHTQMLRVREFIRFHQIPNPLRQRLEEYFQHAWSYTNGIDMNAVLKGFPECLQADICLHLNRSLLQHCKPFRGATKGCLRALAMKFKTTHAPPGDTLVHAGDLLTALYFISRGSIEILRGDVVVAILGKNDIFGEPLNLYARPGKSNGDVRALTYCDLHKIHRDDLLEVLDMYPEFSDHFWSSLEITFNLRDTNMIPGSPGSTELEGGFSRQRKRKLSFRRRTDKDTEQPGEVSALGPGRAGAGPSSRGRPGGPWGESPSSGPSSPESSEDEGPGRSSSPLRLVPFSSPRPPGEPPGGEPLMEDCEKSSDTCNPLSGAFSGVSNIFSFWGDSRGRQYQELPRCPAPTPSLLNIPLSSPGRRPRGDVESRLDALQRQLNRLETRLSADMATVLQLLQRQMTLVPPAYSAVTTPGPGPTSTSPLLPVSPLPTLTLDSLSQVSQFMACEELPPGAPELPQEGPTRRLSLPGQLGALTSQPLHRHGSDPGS
Sequence of CYP2C9 (P11712 whole entry): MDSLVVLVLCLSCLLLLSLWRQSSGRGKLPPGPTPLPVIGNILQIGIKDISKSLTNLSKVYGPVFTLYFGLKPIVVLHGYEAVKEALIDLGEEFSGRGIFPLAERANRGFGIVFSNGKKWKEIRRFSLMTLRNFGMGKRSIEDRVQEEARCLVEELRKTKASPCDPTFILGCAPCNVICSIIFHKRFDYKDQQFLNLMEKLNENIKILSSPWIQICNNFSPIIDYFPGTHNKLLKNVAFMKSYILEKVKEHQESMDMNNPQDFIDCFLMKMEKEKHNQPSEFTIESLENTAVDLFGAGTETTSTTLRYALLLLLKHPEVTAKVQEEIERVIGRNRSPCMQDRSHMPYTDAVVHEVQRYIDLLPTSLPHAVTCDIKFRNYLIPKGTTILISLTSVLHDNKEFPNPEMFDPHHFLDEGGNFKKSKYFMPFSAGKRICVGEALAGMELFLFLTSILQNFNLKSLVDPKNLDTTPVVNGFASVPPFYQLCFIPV
Sequence of Nav1.5 (Q14524 whole entry): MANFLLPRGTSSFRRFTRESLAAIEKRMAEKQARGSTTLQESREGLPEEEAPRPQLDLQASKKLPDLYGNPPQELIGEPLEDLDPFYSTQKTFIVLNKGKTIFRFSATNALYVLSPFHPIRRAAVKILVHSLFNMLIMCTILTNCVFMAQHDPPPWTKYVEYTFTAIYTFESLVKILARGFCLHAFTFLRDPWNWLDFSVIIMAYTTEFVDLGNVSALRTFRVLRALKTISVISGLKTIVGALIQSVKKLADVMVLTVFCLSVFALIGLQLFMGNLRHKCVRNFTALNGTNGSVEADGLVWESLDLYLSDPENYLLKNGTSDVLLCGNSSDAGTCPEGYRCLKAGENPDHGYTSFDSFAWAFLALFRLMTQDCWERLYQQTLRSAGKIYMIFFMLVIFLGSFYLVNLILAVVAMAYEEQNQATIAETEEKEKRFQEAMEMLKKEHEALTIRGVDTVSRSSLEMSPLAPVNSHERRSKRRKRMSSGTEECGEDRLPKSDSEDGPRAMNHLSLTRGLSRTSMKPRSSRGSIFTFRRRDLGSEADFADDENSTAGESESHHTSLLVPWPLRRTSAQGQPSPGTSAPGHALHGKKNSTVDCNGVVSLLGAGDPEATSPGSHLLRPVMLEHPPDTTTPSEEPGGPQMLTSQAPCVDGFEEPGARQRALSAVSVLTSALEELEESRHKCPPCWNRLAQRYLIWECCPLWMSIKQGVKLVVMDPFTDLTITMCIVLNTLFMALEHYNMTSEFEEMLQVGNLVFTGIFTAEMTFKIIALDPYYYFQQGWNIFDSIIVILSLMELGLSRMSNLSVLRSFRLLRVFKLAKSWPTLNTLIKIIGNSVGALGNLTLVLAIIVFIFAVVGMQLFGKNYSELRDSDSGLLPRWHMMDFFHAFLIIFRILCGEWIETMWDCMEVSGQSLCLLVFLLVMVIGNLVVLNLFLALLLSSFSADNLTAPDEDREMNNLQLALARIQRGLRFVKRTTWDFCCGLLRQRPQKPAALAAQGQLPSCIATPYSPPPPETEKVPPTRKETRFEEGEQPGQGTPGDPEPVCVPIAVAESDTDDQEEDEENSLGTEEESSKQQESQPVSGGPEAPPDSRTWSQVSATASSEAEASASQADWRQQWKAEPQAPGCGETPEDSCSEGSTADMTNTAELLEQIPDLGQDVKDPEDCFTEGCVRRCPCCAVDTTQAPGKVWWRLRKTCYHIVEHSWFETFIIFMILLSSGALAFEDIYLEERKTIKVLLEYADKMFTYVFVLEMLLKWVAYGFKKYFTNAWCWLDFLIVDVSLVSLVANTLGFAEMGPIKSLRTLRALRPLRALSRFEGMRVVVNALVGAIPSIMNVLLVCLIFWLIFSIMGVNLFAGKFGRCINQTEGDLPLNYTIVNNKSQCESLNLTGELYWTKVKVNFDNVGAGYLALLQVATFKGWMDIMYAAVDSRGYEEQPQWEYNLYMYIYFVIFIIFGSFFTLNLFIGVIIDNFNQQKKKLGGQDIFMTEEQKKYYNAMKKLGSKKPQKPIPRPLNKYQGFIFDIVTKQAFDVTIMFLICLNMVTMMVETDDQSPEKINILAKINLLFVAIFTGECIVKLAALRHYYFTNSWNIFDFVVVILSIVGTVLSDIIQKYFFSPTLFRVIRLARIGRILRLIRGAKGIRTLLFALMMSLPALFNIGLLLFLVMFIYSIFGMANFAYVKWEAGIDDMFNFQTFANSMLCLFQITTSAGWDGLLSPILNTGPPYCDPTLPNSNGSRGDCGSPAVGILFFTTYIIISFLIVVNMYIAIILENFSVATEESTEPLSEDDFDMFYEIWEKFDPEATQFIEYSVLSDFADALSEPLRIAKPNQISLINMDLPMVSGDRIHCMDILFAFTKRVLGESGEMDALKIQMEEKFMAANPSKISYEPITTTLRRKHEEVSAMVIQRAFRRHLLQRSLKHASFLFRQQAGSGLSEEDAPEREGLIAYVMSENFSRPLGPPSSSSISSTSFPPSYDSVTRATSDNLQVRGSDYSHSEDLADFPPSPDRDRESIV

CO[C@H]1/C=C\C=C(/C)C(=O)NC2=CC(=O)C(NCCCCCC[P+](c3ccccc3)(c3ccccc3)c3ccccc3)=C(C[C@@H](C)C[C@H](OC)[C@H](O)[C@@H](C)/C=C(\C)[C@@H]1OC(N)=O)C2=O [Gamitrinib, 17-Demethoxy-17-((6-(triphenylphosphonio)hexyl)amino)geldanamycin]
IC50 (CYP2C9): 1.1 µM
inhibition at 10 µM (Nav1.5): 22.3 ± 5.3%
inhibition at 10 µM (Cav1.2): 12.2 ± 1.5%
hERG IC50 relative to IC50 of inhibition of tumor growth in NCI 60-cell line screen (hERG; hERG IC50 3.5 μM higher than tumor IC50): up to 20 fold
inhibition at 0.5 µM (hERG; human, HEK293 cells stably transfected with hERG, pH 7.4, 0.5 μM, transfected HEK293 cells, mean±SD): -0.68 ± 3.95%
inhibition at 1 µM (hERG; human, HEK293 cells stably transfected with hERG, pH 7.4, 1 μM, transfected HEK293 cells, mean±SD): 11.7 ± 6.51%
inhibition at 5 µM (hERG; human, HEK293 cells stably transfected with hERG, pH 7.4, 5 μM, transfected HEK293 cells, mean±SD): 66 ± 6.78%
inhibition at 10 µM (hERG; human, HEK293 cells stably transfected with hERG, pH 7.4, 10 μM, transfected HEK293 cells, mean±SD): 81.8 ± 1.88%
IC50 (hERG; patch-clamp, transfected HEK293 cells, read-out: IC50 of hERG inhibition): 3.5 µM
elimination rate constant (k) ([1]; 0.5 μM, human liver microsomes): 0.041
intrinsic clearance (CLint) ([1]; 0.5 μM, human liver microsomes): 3.30 mL/min/g
half-life at 0.5 μM ([1]; human, liver microsomes): 16.7 min
